According to patent publication US20250360117A1, “KCNT1 INHIBITORS COMPRISING AN ISOXAZOLE OR OXADIAZOLE CORE AND METHODS OF USE” (PRAXIS PRECISION MEDICINES, INC., priority 2022, published 2025):
“And” between values parts separate entries of the source, which are not always exact repeats. Equal values may be shown once. “Also recorded” adds a separate entry of the source.

Tests used:
[1] = test system: Kcnt1^R455H/+ heterozygous mice; assay: PTZ-induced seizures in Kcnt1^R455H/+ heterozygous mice; format: in vivo, mouse; conditions: for Convulsive seizure latency: hazard ratio (drug/vehicle): log rank test; for Latency (s) to clonic or tonic seizures with loss of posture: individual animals, 1320 s = no seizure observed over the experiment, 75 mg/kg
Protocol: Kcnt1^R455H/+ heterozygous mice have increased sensitivity to PTZ seizure induction as compared with wild-type littermates. It was determined herein whether a compound of Formula (I-A) delivered prior to PTZ could delay the onset of convulsive seizures. Formula (I-A) (75 mg/kg s.c.) or a vehicle control was administered as a single dose. After a pretreatment period of one or two hours, mice were administered PTZ at a dose of 55 mg/kg for induction of seizures. Seizures were then scored based on behavior (no EEG). The latency to convulsive seizures was compared between groups to determine if the compound can prevent induced seizures.
Animals: Adult Kcnt1^R455H/+ heterozygous C57/B6J mice were used in this example. Mice were approximately 2 months old. No preference was made for male or female animals.
Drug preparation and delivery: A 7.5 mg/mL solution of a compound of Formula (I-A) was prepared on each day of injection in 10% DMSO/10% Solutol/80% deionized water with a volume sufficient for 10-20 animals. After at least 30 minutes of acclimatization to the testing environment, either the drug or vehicle control was delivered to each animal subcutaneously at a dose of 75 mg/kg based on current body weight.
PTZ injection and testing: Kcnt1^R455H/+ mice were tested with PTZ 55 mg/kg IP administered 1 or 2 hours after administration of either the compound of Formula (I-A) 75 mg/kg SC or vehicle control. Mice were then monitored continuously for 30 min by an observer blinded to treatment group. […] Latency to first clonic seizure with loss of posture was recorded and compared using the time to event analysis; log-rank Mantel-Cox in GraphPad Prism, p<0.05 was considered statistically significant. Seizures induced by PTZ were scored using a modified Racine scale, and the latency to convulsive seizures was compared between drug and vehicle groups (log rank test).
Behavior was scored live, and mice were recorded on video for later confirmation. Seizure severity scores were based on a recent report that is specifically designed for mouse PTZ experiments (Van Erum et al., Epilepsy and Behavior 2019 June; 95:51-55). Behavioral seizure scores were as follows: • −1: normal baseline • 0: whisker trembling • 1: behavioral arrest • 2: facial jerking • 3: neck jerks/myoclonus • 4: clonic (sitting) • 5: clonic, tonic-clonic (lying on belly) • 6: clonic, tonic-clonic (lying on side), and wild jumping • 7: tonic extension, possibly leading to respiratory arrest and death.
The time at which mice reached each stage was recorded. It was difficult to reliably ascertain grade 0-2 seizures without the aid of EEG, and there was inconsistency between reviewers for stage 3-5 seizures. As the clearest and most consistent (between examiners) scores were for stage 6-7, only these were used for reporting and analysis, although earlier scores were also recorded and saved. Latency to stage 6 or above seizures were plotted as survival curves, and differences were assessed with a long rank test. Scoring was cut off after 22 minutes post-PTZ administration (1320 seconds).

[2] = test system: Kcnt1^R455H/+ heterozygous mice; assay: Spontaneous interictal epileptiform discharges (spikes) on EEG; format: in vivo, mouse; conditions: 75 mg/kg s.c.
Excerpt: Infrequent spontaneous seizures also occur in some Kcnt1^R455H/+ heterozygous mice. This experiment sought to determine if administration of a compound of Formula (I-A) could reduce interictal spikes.
Animals: Adult Kcnt1^R455H/+ heterozygous mice on a C57/B6J background were used in all experiments disclosed in this example. Mice were approximately 2-3 months old. No preference was made for male or female animals. This strain is almost always stillborn in the homozygous condition. Seizures occur in some but not all heterozygotes, and interictal discharges occurs reliably.
Implantation of EEG electrodes: Mice were anesthetized with inhaled isoflurane 3-4% induction followed by approximately 1-1.5% maintenance titrated to effect. The head was fixed in a Kopf stereotactic apparatus, and the scalp was sterilized with povidone-iodine. The temperature was regulated to 37 degrees Celsius with a heating pad and rectal probe. Pre-emptive analgesia was provided with subgaleal bupivacaine 0.1% administered to form a wheal on the scalp, no more than 0.08 mL/10 g body weight. A linear midline scalp incision was made from behind the eyes to expose skull markers. Four holes were drilled (#60 drill bit): two anterior to the coronal suture (for left and right active recording), and two ⅔ of the way from the frontal to lambdoid suture (for reference and ground), […]. Screw electrodes were inserted in each burr hole (size W00-96×1.6 mm soldered to 15 mm insulated wire) and connected to a plastic pedestal (PlasticsOne E363). This assembly was then secured with dental cement. Meloxicam 5 mg/kg IP was given for post-operative analgesia.
Drug preparation for mice under EEG: A 7.5 mg/mL solution of a compound of Formula (I-A) was prepared on the day of injection in 10% DMSO/10% Solutol/80% deionized water. After at least 72 hours of baseline recording, the compound of Formula (I-A) was delivered subcutaneously at a dose of 75 mg/kg based on pre-surgical body weight.
EEG recording and analysis: Mice were held in a heated cage for at least 24 hours to recover before connection to the EEG recording system. Two-channel EEG with video was recorded using a Compumedics Grael EEG amplifier at 512 Hz sampling rate. The entire EEG was reviewed manually, and all interictal discharges and seizures were identified and marked. Video recordings were used to confirm epileptiform activity. Mice that had adequate recording quality and interictal spikes were selected for drug delivery. […] EEG recordings were manually scored by a reviewer blinded to treatment group. […]
EEG data were collected and reviewed in Compumedics Profusion. […] Average interictal discharge rates were determined in the baseline period and in the first, second, and third post-injection days (FIG. 3A). […]

[3] = test system: Cortical neurons from Kcnt1^R455H heterozygous mice; assay: Neuronal electrophysiology (current clamp and voltage clamp); format: cell-based, mouse; conditions: 10 μM, 20 minutes, vs vehicle control
Protocol: Cortical neurons from Kcnt1^R455H heterozygous mice were cultured and treated for 20 minutes with 10 μM of a compound of Formula (I-A) in DMSO. Presumed glutamatergic neurons were identified based on pyramidal morphology. Presumed GABAergic neurons were identified based on spindle morphology (and fast spiking pattern in the control recordings). Current clamp and voltage clamp recordings were performed on an Axon Multiclamp 700B amplifier. It was observed that pyramidal cells treated with vehicle control had many action potentials and mild adaptation in response to an inward current and large outward currents with depolarization.

[4] = test system: Kcnt1^R455H/R455H pups; assay: Survival of R455H homozygous pups after dosing of pregnant dams; format: in vivo, mouse; conditions: for Age survived before death or euthanasia: individual, dams 75 mg/kg s.c.
Protocol: Quraishi et. al. PMID 32081855. Without wishing to be bound by theory, it is thought that inhibition of mutant channel activity by KCNT1 inhibitors, such as the compound of Formula (I-A), during gestation might aid the survival of homozygous pups. Timed matings were performed on heterozygote breeding pairs, and a compound of Formula (I-A) was administered to the pregnant dams. No dosing of the live pups with Formula (I-A) was performed. All surviving and stillborn offspring that could be recovered were then genotyped, and brains were dissected and sent for measurement of Formula (I-A).
Breeding and dosing: Timed matings were performed on three KCNT1^R455H+×KCNT1^R455H/+ breeding pairs. Maternal injections of Formula (I-A) (75 mg/kg s.c.) were performed for four pregnant dams from three Kcnt1^R455H/+×Kcnt1^R455H/+ breeding pairs and one Kcnt1^+/+×Kcnt1^+/+ breeding pair. Starting approximately 13 days after the mating plug was identified, pregnant dams were administered 75 mg/kg Formula (I-A) (s.c.) every 3 days (as permitted) through the time of delivery. There was some variability in the days of administration as noted. Offspring were observed daily after delivery. The records of litters and treatment dates are shown below in Table 3. In round one, two doses of Formula (I-A) were delivered to each of the two dams from the Kcnt1^R455H/+×Kcnt1^R455H/+ crosses. […] In round two, three doses of Formula (I-A) were delivered to one dam from a Kcnt1^R455H/+×Kcnt1^R455H/+ cross.
(§1) Whole brains were collected from all pups at 14 days after birth or at the time they are found deceased. Tails were genotyped through an automated system (Transnetyx) which was previously validated against PCR-based RFLP and sequencing. The whole brains were analyzed to determine brain exposure of Formula (I-A).

[5] = Brain exposure in pups after maternal dosing (LC-MS/MS); format: in vivo, mouse; conditions: KCNT1^R455H/R455H pups, individual, brain collected when found deceased; maternal 75 mg/kg s.c.
Protocol: as §1
Bioanalysis of Brain Samples: Brain tissue was homogenized in 10:1 (v/wt) ratio using 10 mM PBS in methanol (2:1, v/v). 20 μL of samples were then precipitated with 200 μL IS solution (100 ng/mL Labetalol & 100 ng/mL Tolbutamide in ACN). The mixture was vortex-mixed and centrifuged at 4000 rpm for 15 min, 4° C. An aliquot of 100 μL supernatant was transferred to a sample plate and mixed with 100 μL water. The plate was shaken at 800 rpm for 10 minutes. 1 μL supernatant was then injected for LC-MS/MS analysis. A 1-3000 ng/ml PRX-0002904 calibration curve was prepared in mouse brain homogenate. Ultra-performance liquid chromatography (UPLC) parameters conditions are provided in Table 5 below, and the results are shown in Table 6 below.

**Q.** What does the source list for C[C@H](NC(=O)c1cc(C(F)(F)F)nn1C)c1nc(-c2ccnc(C(F)(F)F)c2)no1 [Formula (I-A)]?
**A.** animals with PTZ-induced convulsive seizures ([1]; 75 mg/kg s.c., 1 hour pretreatment before PTZ 55 mg/kg IP, 1/16 animals, vehicle 6/15 (40%)): 6%; Convulsive seizure latency: hazard ratio (drug/vehicle) ([1]; 75 mg/kg s.c., 1 hour pretreatment before PTZ 55 mg/kg IP): 0.13 (95% CI 0.03-0.58); Convulsive seizure latency: hazard ratio (drug/vehicle) ([1]; 75 mg/kg s.c., 2 hours pretreatment before PTZ 55 mg/kg IP): 0.056 (95% CI 0.019-0.161); mice with a seizure that reached stage 6-7 ([1]; 75 mg/kg s.c., 2 hours prior to PTZ 55 mg/kg IP, 1 out of 20 mice, vehicle 13 out of 20 (65%)): 5%; effect on PTZ-induced seizures (in words) ([1]; 75 mg/kg s.c., compared to vehicle-treated mice): anticonvulsant against PTZ-induced seizures; also recorded: significantly increased the latency to and reduced the incidence of PTZ-induced seizures; Latency (s) to clonic or tonic seizures with loss of posture ([1]; 75 mg/kg s.c. 1 hour prior to PTZ): 1320 s (14×) and 190 s and 647 s; Latency (s) to clonic or tonic seizures with loss of posture ([1]; 75 mg/kg s.c. 2 hours prior to PTZ): 1320 s (19×) and 294 s; interictal spike rate, first 24 hours after dosing vs preceding 72-hour baseline ([2]; N=12, p=0.005): marked per-animal reduction; also recorded: reduced; interictal spike rate, second day after dosing vs baseline ([2]; N=12, p=0.042): reduction persisted; interictal spike rate reduction, third day after dosing vs baseline ([2]; N=12, p>0.999): no longer evident; mice with a decrease in spike rates from baseline to Day 1 ([2]; baseline-adjusted spike rates): 11 out of 12; action potential firing and outward currents, pyramidal cells (presumed glutamatergic) [3]: less sustained action potential firing and diminished outward currents; spike rates and outward currents, presumed GABAergic neurons [3]: markedly reduced spike rates and outward currents; Age survived before death or euthanasia ([4]; Kcnt1^+/+ pups, 2 or 3 doses, brains collected at 14 days): 14 days; Age survived before death or euthanasia ([4]; Kcnt1^R455H/+ pups, 2 or 3 doses, brains collected at 14 days): 14 days; Age survived before death or euthanasia ([4]; Kcnt1^R455H/R455H pups, 2 doses (litters 1, 2) or 3 doses (litter 3), pups not dosed, dams given 2 doses): 1 days (3×) and 2 days; Age survived before death or euthanasia ([4]; Kcnt1^R455H/R455H pups, 2 doses (litters 1, 2) or 3 doses (litter 3), pups not dosed, dams given 3 doses): 4 days; Kcnt1^R455H/R455H pups that survived multiple days ([4]; maternal dosing 75 mg/kg s.c.): Two of five; survival of Kcnt1^R455H/R455H pups born alive (in words) ([4]; round one: two doses 75 mg/kg s.c. to each of two dams, four pups born alive): three surviving for one day and one surviving two days; survival of Kcnt1^R455H/R455H pup (in words) ([4]; round two: three doses 75 mg/kg s.c. to one dam, one pup): survived for four days; Brain Homogenate Concentration [5]: 15.2 ng/mL and 133 ng/mL and 109 ng/mL and 16.9 ng/mL; Brain Homogenate Concentration (ng/mL) [5]: BLQ; Final brain concentration [5]: 167 ng/g and 1458 ng/g and 1200 ng/g and 354 ng/g; Final brain concentration (ng/g) [5]: BLQ
